This note sets out measurements from patent US11345670B2, “Heterocyclic compounds for cancer imaging and treatment and methods for their use” (The University of British Columbia, priority 2015, dated 2022).

For the experiment, the system named is androgen receptor (AR). Kind of experiment: PSA (6.1 kb)-luciferase reporter assay in LNCaP cells induced with R1881. Particulars: Homo sapiens; LNCaP cells transiently transfected with PSA (6.1 kb)-luciferase; 1 h pre-treatment with compound, then R1881 (1 nM) for 24 h; value with standard error. In kind it is cell-based. Here is the method:
LNCaP cells were transiently transfected with PSA (6.1 kb)-luciferase for 24 h prior to pre-treatment with compounds of the invention (e.g., compounds 1a, 9, 13) ranging in concentration from 62.5 ng/ml to 1.5 ug/ml for 1 hour before the addition of vehicle, or synthetic androgen, R1881 (1 nM) to induce luciferase production. After 24 h of incubation with R1881, the cells were harvested, and relative luciferase activities were determined. To determine the IC50, treatments were normalized to the predicted maximal activity induction (in the absence of test compounds, vehicle only).
For orientation: In a reporter assay the amount or activity of a reporter protein is the signal.
In general, IC50 refers to the concentration at which inhibition is half-maximal. As for `CC(C)(c1ccc(OCC(O)CCl)cc1)c1ccc(OCC(O)CN2CCOCC2)cc1` (stereo not drawn) [Compound 13, 1-chloro-3-(4-(2-(4-(2-hydroxy-3-morpholinopropoxy)phenyl)propan-2-yl)phenoxy)propan-2-ol], the IC50 stood at 12.8 µM.

With `CC(C)(c1ccc(OC[C@H](O)CCl)cc1)c1ccc(OC[C@H](O)Cn2nnc(CO)c2I)cc1` [Compound 1a, (S)-1-chloro-3-(4-(2-(4-((R)-2-hydroxy-3-(4-(hydroxymethyl)-5-iodo-1H-1,2,3-triazol-1-yl)propoxy)phenyl)propan-2-yl)phenoxy)propan-2-ol], the concentration for half-maximal inhibition (IC50) came out at 3.23 µM.

Turning to `CC(C)(c1ccc(OCC(O)CCl)cc1)c1ccc(OCC(O)Cn2ccnc2)cc1` (stereo not drawn) [Compound 9, 1-chloro-3-(4-(2-(4-(2-hydroxy-3-(1H-imidazol-1-yl)propoxy)phenyl)propan-2-yl)phenoxy)propan-2-ol], the IC50 was 8.45 µM.
